Reference: US20090143454A1, “Pyrazoline Derivatives and Their Use As Pesticides” (BAYER CROPSCIENCE AG, priority 2001, published 2009)

Key:
Type in all cases: in vivo
[1] = test system: Heliothis virescens caterpillars; test: Heliothis virescens test; conditions: 500 ppm, soyabean shoots dipped
Procedure: (§1) To produce a suitable preparation of active compound, 1 part by weight of active compound is mixed with the stated amounts of solvent and emulsifier, and the concentrate is diluted with emulsifier-containing water to the desired concentration.
Soyabean shoots (Glycine max) are treated by being dipped into the preparation of active compound of the desired concentration and are populated with Heliothis virescens caterpillars while the leaves are still moist.
(§2) After the desired period of time, the kill in % is determined. 100% means that all caterpillars have been killed; 0% means that none of the caterpillars have been killed.

[2] = test system: larvae of the mustard beetle (Phaedon cochleariae); test: Phaedon larvae test; conditions: 168 h, cabbage leaves dipped, after 7 d, read-out: Kill rate in % after 7 d
Procedure: To produce a suitable preparation of active compound, 1 part by weight of active compound is mixed with the stated amounts of solvent and emulsifier, and the concentrate is diluted with emulsifier-containing water to the desired concentration. Cabbage leaves (Brassica oleracea) are treated by being dipped into the preparation of active compound of the desired concentration and are populated with larvae of the mustard beetle (Phaedon cochleariae) while the leaves are still moist.

[3] = test system: caterpillars of the diamond back moth (Plutella xylostella); test: Plutella test; conditions: 500 ppm, cabbage leaves dipped
Procedure: as §1
Cabbage leaves (Brassica oleracea) are treated by being dipped into the preparation of active compound of the desired concentration and are populated with caterpillars of the diamond back moth (Plutella xylostella) while the leaves are still moist.
as §2

[4] = test system: caterpillars of the army worm (Spodoptera frugiperda); test: Spodoptera frugiperda test; conditions: 168 h, cabbage leaves dipped, after 7 d, read-out: Kill rate in % after 7 d
Procedure: as §1
Cabbage leaves (Brassica oleracea) are treated by being dipped into the preparation of active compound of the desired concentration and are populated with caterpillars of the army worm (Spodoptera frugiperda) while the leaves are still moist.
as §2

[5] = test system: Heliothis virescens larvae; test: Test for persistency: Heliothis virescens; conditions: 20 ppm, cotton plants sprayed
Procedure: as §1
Cotton plants (Gossypium hirsutum) are sprayed with a preparation of active compound of the desired concentration. After the stated number of days, Heliothis virescens larvae are, in infection chambers, placed on the treated leaves.
as §2

[6] = test system: larvae of the army worm (Spodoptera frugiperda); test: Test for persistency: Spodoptera frugiperda; conditions: 20 ppm, cotton plants sprayed
Procedure: as §1
Cotton plants (Gossypium hirsutum) are sprayed with a preparation of active compound of the desired concentration. After the stated number of days, larvae of the army worm (Spodoptera frugiperda) are, in infection chambers, placed on the treated leaves.
as §2

Lucilia cuprina larvae = test: Blowfly larvae test/development-inhibitory action; conditions: after 14 d
Procedure: (§3) 20 mg of active compound are dissolved in 1 ml of dimethyl sulphoxide. More dilute concentrations are prepared by dilution with distilled water.
About 20 Lucilia cuprina larvae are introduced into a test tube which contains about 1 cm^3 of horsemeat and 0.5 ml of the preparation of active compound to be tested. The activity of the preparation of active compound is determined after 24 and 48 hours. The test tubes are transferred into a beaker whose bottom is covered with sand. After a further 2 days, the test tubes are removed and the pupae are counted.
The activity of the preparation of active compound is assessed using the number of flies that have hatched after 1.5 times the development period of an untreated control. 100% means that none of the flies have hatched; 0% means that all of the flies have hatched normally.

Periplaneta americana = test: Cockroach test; conditions: dipped 1 minute, after 7 days
Procedure: as §3
4 test animals are dipped for 1 minute into the preparation of active compound to be tested. After transfer into a plastic beaker and storage for 7 days in an air-conditioned room the killing rate is determined. 100% means, that all cockroaches have been killed, 0% means, that none of the cockroaches have been killed.

## N#Cc1cnn(C2CN(C(=O)Nc3ccc(OC(F)(F)F)cc3)N=C2c2ccc(Cl)cc2)c1 (centres unmarked) [drawing 38]
[1]
  Kill rate in % after 7 d: 100%

## N#Cc1cnn(C2CN(C(=O)Nc3ccc(C(F)(F)F)cc3)N=C2c2ccc(Cl)cc2)c1 (centres unmarked) [drawing 39]
[1]
  Kill rate in % after 7 d: 100%

## N#Cc1cnn(C2CN(C(=O)Nc3ccc(Cl)cc3)N=C2c2ccc(Cl)cc2)c1 (centres unmarked) [drawing 40]
[1]
  Kill rate in % after 7 d: 100%

## N#Cc1cnn(C2CN(C(=O)Nc3ccc(SC(F)(F)F)cc3)N=C2c2ccc(Cl)cc2)c1 (centres unmarked) [drawing 41]
[1]
  Kill rate in % after 7 d: 100%

## N#Cc1cnn(C2CN(C(=O)Nc3ccc(OC(F)(F)F)cc3)N=C2c2ccc(Cl)cc2)c1 (centres unmarked) [drawing 43]
[2]
  pest or weed control at 500 ppm: 100%

## N#Cc1cnn(C2CN(C(=O)Nc3ccc(Cl)cc3)N=C2c2ccc(Cl)cc2)c1 (centres unmarked) [drawing 44]
[2]
  pest or weed control at 500 ppm: 100%

## COC(=O)N(C(=O)N1CC(n2cc(C#N)cn2)C(c2ccc(Cl)cc2)=N1)c1ccc(OC(F)(F)F)cc1 (centres unmarked) [drawing 45]
[2]
  pest or weed control at 500 ppm: 100%

## N#CCN(C(=O)N1CC(n2cc(C#N)cn2)C(c2ccc(Cl)cc2)=N1)c1ccc(OC(F)(F)F)cc1 (centres unmarked) [drawing 46]
[2]
  pest or weed control at 500 ppm: 100%

## CCOC(=O)N(C(=O)N1CC(n2cc(C#N)cn2)C(c2ccc(Cl)cc2)=N1)c1ccc(OC(F)(F)F)cc1 (centres unmarked) [drawing 47]
[2]
  pest or weed control at 500 ppm: 100%

## N#Cc1cnn(C2CN(C(=O)Nc3ccc(OC(F)(F)F)cc3)N=C2c2ccc(Br)cc2)c1 (centres unmarked) [drawing 49]
[2]
  pest or weed control at 500 ppm: 100%

## N#Cc1cnn(C2CN(C(=O)Nc3ccc(SC(F)(F)F)cc3)N=C2c2ccc(Br)cc2)c1 (centres unmarked) [drawing 50]
[2]
  pest or weed control at 500 ppm: 100%

## N#Cc1cnn(C2CN(C(=O)Nc3ccc(OC(F)(F)F)cc3)N=C2c2ccc(I)cc2)c1 (centres unmarked) [drawing 51]
[2]
  pest or weed control at 500 ppm: 100%

## N#Cc1cnn(C2CN(C(=O)Nc3ccc(S(=O)(=O)C(F)(F)F)cc3)N=C2c2ccc(Cl)cc2)c1 (centres unmarked) [drawing 52]
[2]
  pest or weed control at 500 ppm: 100%

## N#Cc1cnn(C2CN(C(=O)Nc3ccc(OC(F)(F)F)cc3)N=C2c2ccc(Cl)cc2)c1 (centres unmarked) [drawing 53]
[3]
  Kill rate in % after 7 d: 100%

## N#Cc1cnn(C2CN(C(=O)Nc3ccc(C(F)(F)F)cc3)N=C2c2ccc(Cl)cc2)c1 (centres unmarked) [drawing 54]
[3]
  Kill rate in % after 7 d: 100%

## N#Cc1cnn(C2CN(C(=O)Nc3ccc(Cl)cc3)N=C2c2ccc(Cl)cc2)c1 (centres unmarked) [drawing 55]
[3]
  Kill rate in % after 7 d: 100%

## N#Cc1cnn(C2CN(C(=O)Nc3ccc(SC(F)(F)F)cc3)N=C2c2ccc(Cl)cc2)c1 (centres unmarked) [drawing 56]
[3]
  Kill rate in % after 7 d: 100%

## N#Cc1cnn(C2CN(C(=O)Nc3ccc(C(F)(F)F)cc3)N=C2c2ccc(Cl)cc2)c1 (centres unmarked) [drawing 62]
[4]
  pest or weed control at 500 ppm: 100%

## N#CCN(C(=O)N1CC(n2cc(C#N)cn2)C(c2ccc(Cl)cc2)=N1)c1ccc(OC(F)(F)F)cc1 (centres unmarked) [drawing 63]
[4]
  pest or weed control at 500 ppm: 100%

## CCOC(=O)N(C(=O)N1CC(n2cc(C#N)cn2)C(c2ccc(Cl)cc2)=N1)c1ccc(OC(F)(F)F)cc1 (centres unmarked) [drawing 64]
[4]
  pest or weed control at 500 ppm: 100%

## N#Cc1cnn(C2CN(C(=O)Nc3ccc(OC(F)(F)F)cc3)N=C2c2ccc(Br)cc2)c1 (centres unmarked) [drawing 65]
[4]
  pest or weed control at 500 ppm: 100%

## N#Cc1cnn(C2CN(C(=O)Nc3ccc(SC(F)(F)F)cc3)N=C2c2ccc(Br)cc2)c1 (centres unmarked) [drawing 66]
[4]
  pest or weed control at 500 ppm: 100%

## N#Cc1cnn(C2CN(C(=O)Nc3ccc(S(=O)(=O)C(F)(F)F)cc3)N=C2c2ccc(Br)cc2)c1 (centres unmarked) [drawing 67]
[4]
  pest or weed control at 500 ppm: 100%

## N#Cc1cnn(C2CN(C(=O)Nc3ccc(OC(F)(F)F)cc3)N=C2c2ccc(I)cc2)c1 (centres unmarked) [drawing 68]
[4]
  pest or weed control at 500 ppm: 100%

## N#Cc1cnn(C2CN(C(=O)Nc3ccc(SC(F)(F)F)cc3)N=C2c2ccc(I)cc2)c1 (centres unmarked) [drawing 69]
[4]
  pest or weed control at 500 ppm: 100%

## N#Cc1cnn(C2CN(C(=O)Nc3ccc(OC(F)(F)F)cc3)N=C2c2ccc(SC(F)(F)F)cc2)c1 (centres unmarked) [drawing 70]
[4]
  pest or weed control at 500 ppm: 100%

## N#Cc1cnn(C2CN(C(=O)Nc3ccc(SC(F)(F)F)cc3)N=C2c2ccc(SC(F)(F)F)cc2)c1 (centres unmarked) [drawing 71]
[4]
  pest or weed control at 500 ppm: 100%

## N#Cc1cnn(C2CN(C(=O)Nc3ccc(OC(F)(F)F)cc3)N=C2c2ccc(Cl)cc2)c1 (centres unmarked) [drawing 72]
[5]; infection after 5 d
  Kill rate in % 7 d after infection: 100%
[5]; infection after 12 d
  Kill rate in % 7 d after infection: 90%
[5]; infection after 19 d
  Kill rate in % 7 d after infection: 100%

## N#Cc1cnn(C2CN(C(=O)Nc3ccc(C(F)(F)F)cc3)N=C2c2ccc(Cl)cc2)c1 (centres unmarked) [drawing 73]
[5]; infection after 5 d
  Kill rate in % 7 d after infection: 100%
[5]; infection after 12 d
  Kill rate in % 7 d after infection: 100%
[5]; infection after 19 d
  Kill rate in % 7 d after infection: 90%

## N#Cc1cnn(C2CN(C(=O)Nc3ccc(SC(F)(F)F)cc3)N=C2c2ccc(Cl)cc2)c1 (centres unmarked) [drawing 74]
[5]; infection after 5 d
  Kill rate in % 7 d after infection: 80%
[5]; infection after 12 d
  Kill rate in % 7 d after infection: 70%
[5]; infection after 19 d
  Kill rate in % 7 d after infection: 90%

## N#Cc1cnn(C2CN(C(=O)Nc3ccc(OC(F)(F)F)cc3)N=C2c2ccc(Cl)cc2)c1 (centres unmarked) [drawing 75]
[6]; infection after 5 d
  Kill rate in % 7 d after infection: infection after: 5^d 12^d 19^d 100 100 100%
[6]; infection after 12 d
  Kill rate in % 7 d after infection: infection after: 5^d 12^d 19^d 100 100 100%
[6]; infection after 19 d
  Kill rate in % 7 d after infection: infection after: 5^d 12^d 19^d 100 100 100%

## N#Cc1cnn(C2CN(C(=O)Nc3ccc(C(F)(F)F)cc3)N=C2c2ccc(Cl)cc2)c1 (centres unmarked) [drawing 76]
[6]; infection after 5 d
  Kill rate in % 7 d after infection: infection after: 5^d 12^d 19^d 100 100 100%
[6]; infection after 12 d
  Kill rate in % 7 d after infection: infection after: 5^d 12^d 19^d 100 100 100%
[6]; infection after 19 d
  Kill rate in % 7 d after infection: infection after: 5^d 12^d 19^d 100 100 100%

## N#Cc1cnn(C2CN(C(=O)Nc3ccc(SC(F)(F)F)cc3)N=C2c2ccc(Cl)cc2)c1 (centres unmarked) [drawing 77]
[6]; infection after 5 d
  Kill rate in % 7 d after infection: 90%
[6]; infection after 12 d
  Kill rate in % 7 d after infection: 100%
[6]; infection after 19 d
  Kill rate in % 7 d after infection: 100%

## N#Cc1cnn(C2CN(C(=O)Nc3ccc(C(F)(F)F)cc3)N=C2c2ccc(Cl)cc2)c1 (centres unmarked) [drawing 86]
Lucilia cuprina larvae; 20 ppm
  activity/kill rate in % after 14 d: 100/100%
Lucilia cuprina larvae; 100 ppm
  activity/kill rate in % after 14 d: 100/100%

## N#Cc1cnn(C2CN(C(=O)Nc3ccc(Cl)cc3)N=C2c2ccc(Cl)cc2)c1 (centres unmarked) [drawing 87]
Lucilia cuprina larvae; 20 ppm
  activity/kill rate in % after 14 d: 100/100%
Lucilia cuprina larvae; 100 ppm
  activity/kill rate in % after 14 d: 100/100%

## N#Cc1cnn(C2CN(C(=O)Nc3ccc(SC(F)(F)F)cc3)N=C2c2ccc(Cl)cc2)c1 (centres unmarked) [drawing 88]
Lucilia cuprina larvae; 20 ppm
  activity/kill rate in % after 14 d: 100/100%
Lucilia cuprina larvae; 100 ppm
  activity/kill rate in % after 14 d: 100/100%

## CCOC(=O)N(C(=O)N1CC(n2cc(C#N)cn2)C(c2ccc(Cl)cc2)=N1)c1ccc(OC(F)(F)F)cc1 (centres unmarked) [drawing 89]
Lucilia cuprina larvae; 20 ppm
  activity/kill rate in % after 14 d: 100%

## N#Cc1cnn(C2CN(C(=O)Nc3ccc([S+]([O-])C(F)(F)F)cc3)N=C2c2ccc(Cl)cc2)c1 (centres unmarked) [drawing 90]
Lucilia cuprina larvae; 20 ppm
  activity/kill rate in % after 14 d: 100/100%
Lucilia cuprina larvae; 100 ppm
  activity/kill rate in % after 14 d: 100/100%

## N#Cc1cnn(C2CN(C(=O)Nc3ccc(OC(F)(F)F)cc3)N=C2c2ccc(Cl)cc2)c1 (centres unmarked) [drawing 97]
Periplaneta americana; 100 ppm
  activity/kill rate in %: 25%

## N#Cc1cnn(C2CN(C(=O)Nc3ccc(C(F)(F)F)cc3)N=C2c2ccc(Cl)cc2)c1 (centres unmarked) [drawing 98]
Periplaneta americana; 100 ppm
  activity/kill rate in %: 50%

## COC(=O)N(C(=O)N1CC(n2cc(C#N)cn2)C(c2ccc(Cl)cc2)=N1)c1ccc(OC(F)(F)F)cc1 (centres unmarked) [drawing 99]
Periplaneta americana; 20 ppm
  activity/kill rate in %: 25%
Periplaneta americana; 100 ppm
  activity/kill rate in %: 100%

## CCOC(=O)N(C(=O)N1CC(n2cc(C#N)cn2)C(c2ccc(Cl)cc2)=N1)c1ccc(OC(F)(F)F)cc1 (centres unmarked) [drawing 100]
Periplaneta americana; 20 ppm
  activity/kill rate in %: 25%
Periplaneta americana; 100 ppm
  activity/kill rate in %: 75%

## N#Cc1cnn(C2CN(C(=O)Nc3ccc(OC(F)(F)F)cc3)N=C2c2ccc(Br)cc2)c1 (centres unmarked) [drawing 101]
Periplaneta americana; 100 ppm
  activity/kill rate in %: 25%

## N#Cc1cnn(C2CN(C(=O)Nc3ccc(OC(F)(F)F)cc3)N=C2c2ccc(I)cc2)c1 (centres unmarked) [drawing 102]
Periplaneta americana; 100 ppm
  activity/kill rate in %: 50%
